The values that follow come from patent US10662195B2, “Protein kinase conjugates and inhibitors” (Celgene Avilomics Research, Inc., priority 2009, dated 2020).

The target of one assay is BTK (Homo sapiens, UniProt Q06187). Nature of the assay: Omnia assay for potency assessment against BTK. The note with it: 30 min pre-incubation; read-out: IC50_APP BTK. It counts as biochemical. The text has this: B. Omnia Assay Protocol for Potency Assessment Against BTK
Below describes the protocol using EGFR-WT and EGFR-T790M/L858R and the protocol BTK-optimized reagent conditions then follow.
The mechanics of the assay platform are best described by the vendor (Invitrogen, Carlsbad, Calif.) on their website at the following URL: http://www.invitrogen.com/content.cfm?pageid=11338 or http://www.invitrogen.com/site/us/en/home/Products-and-Services/Applications/Drug-Discovery/Target-and-Lead-Identification-and-Validation/KinaseBiology/KB-Misc/Biochemical-Assays/Omnia-Kinase-Assays.html.
Briefly, 10× stocks of EGFR-WT (PV3872) from Invitrogen and EGFR-T790M/L858R (40350) from BPS Bioscience, San Diego, Calif., 1.13×ATP (AS001A) and appropriate Tyr-Sox conjugated peptide substrates (KCZ1001) were prepared in 1× kinase reaction buffer consisting of 20 mM Tris, pH 7.5, 5 mM MgCl2, 1 mM EGTA, 5 mM β-glycerophosphate, 5% glycerol (10× stock, KB002A) and 0.2 mM DTT (DS001A). 5 μL of each enzyme were pre-incubated in a Corning (#3574) 384-well, white, non-binding surface microtiter plate (Corning, N.Y.) for 30 min. at 27° C. with a 0.5 μL volume of 50% DMSO and serially diluted compounds prepared in 50% DMSO. Kinase reactions were started with the addition of 45 μL of the ATP/Tyr-Sox peptide substrate mix and monitored every 30-90 seconds for 60 minutes at λex360/λem485 in a Synergy^4 plate reader from BioTek (Winooski, Vt.). At the conclusion of each assay, progress curves from each well were examined for linear reaction kinetics and fit statistics (R^2, 95% confidence interval, absolute sum of squares). Initial velocity (0 minutes to ˜30 minutes) from each reaction was determined from the slope of a plot of relative fluorescence units vs time (minutes) and then plotted against inhibitor concentration to estimate IC50 from log [Inhibitor] vs Response, Variable Slope model in GraphPad Prism from GraphPad Software (San Diego, Calif.).
The modified BTK-optimized reagent conditions for the above protocol are:
[BTK]=5 nM, [ATP]=[…], [Y5-Sox]=[…] (ATP KMapp˜[…]).
(§1) The reported IC50_APP and IC50 values are in units of nM.

Assay [1] has as its target T1, KDR (Homo sapiens, UniProt P35968). Briefly: Mass spectral analysis of tryptic digest of KDR after incubation with compound. The note with it: KDR 40 pmols, compound 395 pmols, 3 hrs, MALDI. Type of assay: binding. As to the method: KDR kinase (40 pmols) was incubated with II-2 (395 pmols) for 3 hrs at 10× access prior to tryptic digestion. Iodoacetamide was used as the alkylating agent after compound incubation. For tryptic digests a 5 ul aliquot (6.7 pmols) was diluted with 10 ul of 0.1% TFA prior to micro C18 Zip Tipping directly onto the MALDI target using alpha cyano-4-hydroxy cinnamic acid as the matrix (5 mg/ml in 0.1% TFA:Acetonitrile 50:50).
For tryptic digests the instrument was set in Reflectron mode with a pulsed extraction setting of 1800. Calibration was done using the Laser Biolabs Pep Mix standard (1046.54, 1296.69, 1672.92, 2093.09, 2465.20). For CID/PSD analysis the peptide was selected using cursors to set ion gate timing and fragmentation occurred at a laser power about 20% higher and He was used as the collision gas for CID. Calibration for fragments was done using the P14R fragmentation calibration for the Curved field Reflectron.

In assay [2] the target is T1, KDR. Nature of the assay: KDR Omnia continuous-read kinase assay. It counts as biochemical. Also on record: purchased Invitrogen or BPS Bioscience PV3660 or 40301. The note with it: 30 min pre-incubation; read-out: IC50_APP KDR. As to the method:
A. KDR and FLT-3 Omnia Assay for Potency Assessment:
The protocol below describes a continuous-read kinase assay to measure inherent potency of Avila Therapeutics' compounds against active KDR and FLT-3 enzymes. The assay was performed substantially as described by the vendor (Invitrogen, Carlsbad, Calif.; http://www.invitrogen.com/content.cfm?pageid=11338.)
Briefly, 10× stocks of KDR from Invitrogen or BPS Bioscience (PV3660 or 40301) and FLT-3 (PV3182) enzymes, 1.13×ATP (AS001A) and Y9-Sox or Y12-Sox peptide substrates (KCZ1001) were prepared in 1× kinase reaction buffer consisting of 20 mM Tris, pH 7.5, 5 mM MgCl2, 1 mM EGTA, 5 mM β-glycerophosphate, 5% glycerol (10× stock, KB002A) and 0.2 mM DTT (DS001A). 5 μL of enzyme were pre-incubated in a Corning (#3574) 384-well, white, non-binding surface microtiter plate (Corning, N.Y.) for 30 min at 27° C. with a 0.5 μL volume of 50% DMSO and serially diluted compounds prepared in 50% DMSO. Kinase reactions were started with the addition of 45 μL of the ATP/Y9 or Y5-Sox peptide substrate mix and monitored every 30-90 seconds for 60 minutes at λex360/λem485 in a Synergy^4 plate reader from BioTek (Winooski, Vt.). At the conclusion of each assay, progress curves from each well were examined for linear reaction kinetics and fit statistics (R^2, 95% confidence interval, absolute sum of squares). Initial velocity (0 minutes to 20+ minutes) from each reaction was determined from the slope of a plot of relative fluorescence units vs time (minutes) and then plotted against inhibitor concentration to estimate IC50 from Log [Inhibitor] vs Response, Variable Slope model in GraphPad Prism from GraphPad Software (San Diego, Calif.). […]
as §1

T1 sequence (P35968 20-1356): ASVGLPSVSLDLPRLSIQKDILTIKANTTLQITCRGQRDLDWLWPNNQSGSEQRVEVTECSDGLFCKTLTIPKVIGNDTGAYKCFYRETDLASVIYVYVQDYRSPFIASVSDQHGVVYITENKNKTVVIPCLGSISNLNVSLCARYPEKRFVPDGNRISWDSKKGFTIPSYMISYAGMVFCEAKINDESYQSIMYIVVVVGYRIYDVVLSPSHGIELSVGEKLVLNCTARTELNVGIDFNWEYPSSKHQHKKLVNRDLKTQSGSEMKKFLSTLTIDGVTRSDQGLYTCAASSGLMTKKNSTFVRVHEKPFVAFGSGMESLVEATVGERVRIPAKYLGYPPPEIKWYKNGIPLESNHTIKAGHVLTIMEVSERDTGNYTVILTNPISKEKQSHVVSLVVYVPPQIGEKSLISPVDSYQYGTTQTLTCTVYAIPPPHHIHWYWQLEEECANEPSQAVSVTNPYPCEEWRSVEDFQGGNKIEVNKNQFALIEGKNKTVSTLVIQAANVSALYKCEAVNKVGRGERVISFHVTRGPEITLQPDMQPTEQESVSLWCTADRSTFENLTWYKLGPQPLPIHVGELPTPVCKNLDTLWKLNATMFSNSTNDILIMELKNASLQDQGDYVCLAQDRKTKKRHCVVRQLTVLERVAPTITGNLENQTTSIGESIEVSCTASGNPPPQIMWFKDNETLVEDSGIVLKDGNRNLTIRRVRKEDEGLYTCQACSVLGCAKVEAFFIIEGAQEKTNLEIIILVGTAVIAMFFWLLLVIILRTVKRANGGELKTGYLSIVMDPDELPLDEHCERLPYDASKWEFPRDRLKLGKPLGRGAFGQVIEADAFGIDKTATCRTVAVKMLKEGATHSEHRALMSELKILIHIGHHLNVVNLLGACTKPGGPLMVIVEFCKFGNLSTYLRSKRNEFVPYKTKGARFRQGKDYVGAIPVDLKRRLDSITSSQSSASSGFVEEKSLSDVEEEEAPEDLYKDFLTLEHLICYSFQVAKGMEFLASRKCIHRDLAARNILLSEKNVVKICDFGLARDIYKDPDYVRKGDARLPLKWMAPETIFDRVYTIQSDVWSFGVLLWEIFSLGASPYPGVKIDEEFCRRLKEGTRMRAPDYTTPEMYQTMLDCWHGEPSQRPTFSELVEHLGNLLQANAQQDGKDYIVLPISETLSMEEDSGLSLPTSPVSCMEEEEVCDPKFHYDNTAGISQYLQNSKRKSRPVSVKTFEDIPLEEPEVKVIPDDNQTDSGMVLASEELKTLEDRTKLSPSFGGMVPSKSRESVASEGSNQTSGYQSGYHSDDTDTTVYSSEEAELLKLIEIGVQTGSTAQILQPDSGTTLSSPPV
BTK, sequence (Q06187 whole entry): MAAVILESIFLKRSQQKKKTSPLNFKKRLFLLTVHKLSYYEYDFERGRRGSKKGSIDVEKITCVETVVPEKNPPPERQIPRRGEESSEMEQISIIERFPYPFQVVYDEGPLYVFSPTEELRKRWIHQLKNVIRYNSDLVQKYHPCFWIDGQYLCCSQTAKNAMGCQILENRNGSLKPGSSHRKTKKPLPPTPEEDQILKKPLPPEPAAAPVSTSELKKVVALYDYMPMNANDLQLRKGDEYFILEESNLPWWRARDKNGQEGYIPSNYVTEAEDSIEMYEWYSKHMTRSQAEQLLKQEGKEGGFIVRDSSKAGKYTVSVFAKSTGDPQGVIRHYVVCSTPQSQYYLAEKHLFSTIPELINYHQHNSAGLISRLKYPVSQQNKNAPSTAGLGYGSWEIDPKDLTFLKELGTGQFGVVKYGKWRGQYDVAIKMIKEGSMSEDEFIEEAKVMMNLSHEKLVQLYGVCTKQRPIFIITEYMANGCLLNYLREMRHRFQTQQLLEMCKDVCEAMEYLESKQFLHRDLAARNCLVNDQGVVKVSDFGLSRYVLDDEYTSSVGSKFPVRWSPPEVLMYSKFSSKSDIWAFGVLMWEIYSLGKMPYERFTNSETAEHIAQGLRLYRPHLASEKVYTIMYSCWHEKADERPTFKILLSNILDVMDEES

`C=CC(=O)N1CCC(Sc2nc(Nc3ncc(C#N)s3)cc(N3CCN(C)CC3)n2)CC1` [II-2, 2-(2-(1-Acryloylpiperidin-4-ylthio)-6-(4-methylpiperazin-1-yl)pyrimidin-4-ylamino)thiazole-5-carbonitrile]: the IC50 is 0.000572 µM on BTK and 0.0514 µM at KDR [2]. Also, the “MH+ of compound-modified tryptic peptide (ICDFGLAR) of KDR” value on KDR [1] was determined as 1364.63.
